Results from patent US20250250265A1, “BENZOTHIAZOLE-PHENYLSULFONYL-PIPERIDINE ANALOGS AS ACTIVATORS OF NACYLPHOSPHATIDYLETHANOLAMINE HYDROLYZING PHOSPHOLIPASE D” (priority 2022, published 2025).
Read-outs that look alike come from different tables or passages of the source.

Target: T1, recombinant mouse NAPE-PLD (Mus musculus, UniProt Q8BH82)
T1 construct: hexahistidine (His6) (C); made in house; host or cells: E. coli
T1 sequence (Q8BH82 1-396): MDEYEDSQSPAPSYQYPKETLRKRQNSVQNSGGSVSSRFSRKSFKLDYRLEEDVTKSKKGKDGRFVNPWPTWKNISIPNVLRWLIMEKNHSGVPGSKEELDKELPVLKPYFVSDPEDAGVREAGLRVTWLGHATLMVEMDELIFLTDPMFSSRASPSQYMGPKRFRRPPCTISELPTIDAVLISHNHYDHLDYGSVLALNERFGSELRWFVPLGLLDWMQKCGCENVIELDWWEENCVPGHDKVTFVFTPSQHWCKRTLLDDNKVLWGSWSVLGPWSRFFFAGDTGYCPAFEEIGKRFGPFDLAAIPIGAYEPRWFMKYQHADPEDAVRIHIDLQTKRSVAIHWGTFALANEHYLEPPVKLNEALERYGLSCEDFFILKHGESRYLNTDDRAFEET
Assay: In vitro fluorescence NAPE-PLD activity assay (HTS/CRC) with recombinant mouse NAPE-PLD and PED-A1
Assay type: biochemical
Conditions: for Max % bA (%): maximum induced activity compared to basal (100%) activity; for Emax (95% Cl): Table 4, maximal efficacy as fold increase in NAPE-PLD activity versus vehicle only
Procedure: Using the fluorogenic NAPE substrate, PED-A1, and recombinant mouse NAPE-PLD (rNAPE-PLD), an in vitro high-throughput (HTS) assay was conducted to screen ˜40,000 compounds for their ability to modulate NAPE-PLD activity. The HTS assay enabled the detection of both NAPE-PLD activators and inhibitors. […] Initial structure-activity response studies with the top hits identified benzothiazole phenylsulfonyl-piperidine carboxamide analogs (BT-PSP analogs) as lead compounds for NAPE-PLD activators (Table 1). The lead BT-PSP analog identified, VU534, induces 50% of its activation effect on NAPE-PLD at 270 nM (AC50 270 nM), and induces a maximal effect of 195% of basal NAPE-PLD activity (Table 1).
In vitro fluorescence NAPE-PLD activity assays using recombinant NAPE-PLD and either PED-A1 or flame-NAPE as fluorogenic substrate were performed as previously described except with small modifications as noted below. See Aggarwal et al., J. Biol. Chem. 295(21): 7289-7300 (2020); Zarrow et al., J. Lipid Res. 63(1): 100156 (2022).
For the HTS assays, test compounds were incubated with recombinant enzyme for 1 h prior to adding PED-A1 (final 0.4 μM) mixed with N-palmitoyl-dioleoyl-PE (final 3.6 μM) to adjust for the high sensitivity of the Panoptic instrument (WaveFront Biosciences). Assays used black-wall, clear-bottom, non-sterile, and non-treated 384-well plates (Greiner Bio-One 781906). The assay was read in kinetic fluorescence mode on the Panoptic instrument for 4 min and the slope of the signal from 30-100 s was used for analysis. A total of 39,328 compounds from the Vanderbilt Discovery Collection were tested, each at 10 μM. The tested compounds were chosen to represent a structurally diverse selection from the full library. Each 384-well plate included 320 test compound wells and 64 control wells. Unlike previous pilot screening assays, bithionol (10 μM final) was used in place of lithocholic acid (100 μM final) as the inhibitor control. Before performing high-throughput screening, a checkerboard assay was performed to validate the assay parameters. This yielded a Z′ score of 0.676. Z′ scores were also calculated for each plate during screening, and plates with scores <0.5 were re-run. The average Z′ across all screening plates was 0.52, and the total hit rate was 3.6%. B-scores were calculated from the initial slopes across each plate using WaveGuide software (WaveFront Biosiences). Modulator hits were defined as compounds with absolute B-scores of 3 or higher. The number of compounds in various B-score ranges were as follows: […], 12 compounds; −10 to −5, 221 compounds; −5 to −3, 770 compounds; −3 to 3, 37924 compounds; 3 to 4, 314 compounds; 4 to 6, 70 compounds; 6 to 10, 15 compounds. Activator hits with B-scores of >3 were selected for the replication assay and a selection of analogs of the activators.
Concentration response curve (CRC) experiments used the same assay conditions as the HTS assay, except that graded concentrations of each test compound were used, with total amount of vehicle (DMSO) kept constant. CRC experiments with purified recombinant mouse NAPE-PLD were performed on two separate days, with values from each day normalized to vehicle only controls on same plate, and then all normalized values from both days averaged together. CRC experiments with human NAPE-PLD represent value from only a single day, due to limited amounts of this recombinant enzyme.

[1] = Table 1, concentration for 50% maximum activation from basal activity (no activator)
[2] = Table 2, maximal induced activity for recombinant NAPE-PLD compared to basal (100%), read-out: Emax (%)
[3] = Table 2, rNAPE-PLD activity assay
[4] = Table 3, read-out: In vitro EC50
[5] = Table 3, read-out: In vitro Emax (100% activity is baseline activity of vehicle only)

SMILES	AC50 [1] [nM]	Max % bA (%) (Table 1)	Emax [2] [%]	EC50 (μM) [3]	EC50 [4] [nM]	Emax [5] [%]	Emax (95% Cl)	EC50 (Table 2, rNAPE-PLD activity assay, read-out: EC50) [nM]	AC50 (nM) [1]
COc1ccc(S(=O)(=O)N2CCC(C(=O)Nc3nc4c(C)cccc4s3)CC2)cc1 [VU605]	1040	170	< 120	Inactive	~200	~119	2.1 (2.0-2.2) fold	–	–
Cc1ccc(S(=O)(=O)N2CCC(C(=O)Nc3nc4ccc(Cl)cc4s3)CC2)cc1 [VU572]	–	–	–	–	–	~349	–	–	–
O=C(Nc1nc2ccccc2s1)C1CCN(S(=O)(=O)c2ccc(Cl)cc2)CC1 [VU541]	–	–	–	–	3300	153	–	–	–
COc1ccc2nc(NC(=O)C3CCN(S(=O)(=O)c4ccc(F)cc4)CC3)sc2c1 [VU484]	–	–	–	–	2600	162	2.1 (2.0-2.2) fold	–	–
O=C(Nc1nc2ccccc2s1)C1CCN(S(=O)(=O)c2ccc(F)cc2)CC1 [VU488]	–	–	135	–	390	136	1.7 (1.6-1.8) fold	390	–
COc1cccc2sc(NC(=O)C3CCN(S(=O)(=O)c4ccc(F)cc4)CC3)nc12 [VU485]	–	–	–	–	29000	232	2.0 (1.8-4.0) fold	–	–
Cc1cccc2sc(NC(=O)C3CCN(S(=O)(=O)c4ccc(Cl)cc4)CC3)nc12 [VU542]	–	<120	< 120	Inactive	1100	183	1.9 (1.9-2.0) fold	–	Not active
